What is called IC50 is the concentration at which inhibition is half-maximal. Higher therefore signals a need for much substance.

The target in this test is T1, p38α (Homo sapiens, UniProt Q16539).
T1 construct: p38 MAP Kinases are recombinant human full-length proteins with an amino-terminal GST fusion; GST (N); purchased Upstate (Charlottesville, Va.); host or cells: E. coli
T1 sequence (Q16539 whole entry, the tested form may be a part): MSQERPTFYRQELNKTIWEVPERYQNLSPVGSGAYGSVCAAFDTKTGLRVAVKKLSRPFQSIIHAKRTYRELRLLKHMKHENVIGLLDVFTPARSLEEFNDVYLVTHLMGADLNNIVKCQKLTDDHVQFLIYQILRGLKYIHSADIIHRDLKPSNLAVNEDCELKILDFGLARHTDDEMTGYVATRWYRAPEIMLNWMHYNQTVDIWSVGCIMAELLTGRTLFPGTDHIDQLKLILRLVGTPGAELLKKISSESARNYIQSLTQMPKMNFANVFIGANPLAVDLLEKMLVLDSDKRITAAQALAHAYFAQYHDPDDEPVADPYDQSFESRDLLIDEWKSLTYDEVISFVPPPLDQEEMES
As to the kind of experiment: p38 MAP Kinase assay, ATF2 phosphorylation (ELISA). It counts as biochemical. As to conditions: 40 μM ATP. An excerpt: Compounds of the invention are screened for the ability to inhibit ATF2 phosphorylation by p38 MAP Kinase in vitro. The ability of compounds to inhibit ATF2 phosphorylation in this in vitro assay is correlated with the inhibition of p38 MAP Kinase and TNFα expression in vivo, and is therefore an indicator of potential in vivo therapeutic activity (Raingeaud, J., et al, J. Biol. Chem., 270: 7420-7426, 1995, Brinkman, M. N., et al, J. Bil. Chem. 274: 30882-30886, 1999 and Fuchs, S. Y. et al, J. Biol. Chem. 275: 12560-12564, 2000).
All kinases and the substrate ATF2 are acquired from Upstate (Charlottesville, Va.). p38 MAP Kinases are recombinant human full-length proteins with an amino-terminal GST fusion, expressed in and purified from E. coli. ATF2 is a GST fusion protein containing amino acids 19-96 of human ATF2 expressed in E. coli. All proteins were aliquoted and stored at −80° C.
p38 MAP Kinase assays are performed using an assay buffer containing 25 mM HEPES, pH 7.5, 10 mM MgCl2, 2 mM DTT, 20 mM β-glycerophosphate, 0.1 mM Na3VO4, 40 μM ATP and 1.25 μM of ATF2, together with 6 ng of p38α protein, 12 ng p38β protein, 1.5 ng p38γ, or 0.4 ng JNK2α2. Compounds are serially diluted in DMSO and 2 μL of test compound at 25× final concentration is used. The vehicle control receives DMSO only. Test compounds are pre-incubated with 20 μl of enzyme in kinase buffer (25 mM HEPES, pH 7.5, 10 mM MgCl2, 2 mM DTT, 20 mM 3-glycerophosphate and 0.1 mM Na3VO4) at room temperature for 15 minutes. […] The reactions are incubated for 30 minutes at 37° C. and terminated by the addition of 18 μl of 200 mM EDTA. An ELISA method is used to measure the phosphorylation of ATF2 at Thr 69. High binding 96-well plates (Corning 3369) are coated with 50 μl of kinase reaction for 1 hour at 37° C. The coated plates are washed with 200 μl washing buffer (25 mM Tris HCl, pH 8.3, 192 mM glycine, 0.1% SDS and 0.05% Tween-20) three times. The plates are then washed three times with SuperBlock in TBS (Pierce, 37535). After blocking, plates are incubated with 50 μl of rabbit anti-phospho-ATF2 antibody (Cell Signaling, 9221 L, 1:500) for 30 minutes at 37° C. Plates are washed three times with washing buffer prior to incubation with 50 μl HRP-conjugated goat anti-rabbit antibody (Cell Signaling, 7074, 1:500) for 30 minutes at 37° C. Plates are then washed three times with washing buffer before incubation with 50 μl of Ultra TMB-ELISA (Pierce, 34028) for 8 minutes at room temperature. Finally, 50 μl of phosphoric acid (1 M) is added to stop reactions and plate absorbance is read at 450 nm on a SpectraMax 250 plate reader.
For orientation: In an ELISA, binding on a coated surface is turned into a signal by an enzyme label.
For `Cc1csc2nc(-c3ccc(F)cc3)c(-c3ccnc(NC(CO)CO)n3)n12` [CCIV], the 50% inhibitory concentration (IC50) is 10100 nM.

Consider `C[C@H](O)CNc1nc(N)cc(-c2c(-c3ccc(F)cc3)nc3sccn23)n1` [CCXXV], for which inhibition was half-maximal at 1050 nM (IC50). This IC50 lies about 9.6-fold lower than the previous one.

For `Fc1ccc(CNc2nccc(-c3c(-c4ccccc4)nc4sccn34)n2)cc1` [CXXXVI], the IC50 was 150 nM.

`Fc1ccc(-c2nc3sccn3c2-c2ccnc(NCc3cccs3)n2)cc1` [CLII] came in with an IC50 of 6.14 nM.

`c1ccc(-c2nc3sccn3c2-c2ccnc(N3CCCCC3)n2)cc1` [CXXXV]: the 50% inhibitory concentration (IC50) is 396 nM.

Regarding `O=C(Cc1csc2nc(-c3ccc(F)cc3)c(-c3ccnc(NCc4ccccc4)n3)n12)NCc1ccccc1` [CLXV], half-maximal inhibition (IC50) required 1000 nM. Against the preceding compound, the IC50 is about 2.5-fold higher.

`c1ccc(-c2nc3sccn3c2-c2ccnc(NCc3ccco3)n2)cc1` [CLIII] had an IC50 of 15.6 nM. This IC50 is about […]-fold lower than that of the compound before.

`c1ccc(CNc2nccc(-c3c(-c4ccccc4)nc4sccn34)n2)cc1` [CXXXI] registered a concentration for half-maximal inhibition (IC50) of 28.5 nM.

Take `CC(C)(C)OC(=O)CNc1nccc(-c2c(-c3ccc(F)cc3)nc3sccn23)n1` [CLVI]: the IC50 was determined as 58.6 nM.

Compound `OCC(CO)Nc1nccc(-c2c(-c3ccc(F)cc3)nc3sccn23)n1` [CLXXXV] had a half-maximal inhibitory concentration (IC50) of 87.1 nM.

As to `Cc1csc2nc(-c3ccc(F)cc3)c(-c3ccnc(N[C@H](CO)C(C)C)n3)n12` [CCV], the 50% inhibitory concentration (IC50) was 3190 nM.

`Fc1ccc(-c2nc3sccn3c2-c2ccnc(N3CCOCC3)n2)cc1` [CXLVI] had a concentration for half-maximal inhibition (IC50) of 129 nM.

Compound `CC(CO)(CO)Nc1nccc(-c2c(-c3ccc(F)cc3)nc3sccn23)n1` [CLXXIX] showed a concentration for half-maximal inhibition (IC50) of 192 nM.

`CS(=O)(=O)c1nccc(-c2c(-c3ccc(F)cc3)nc3occn23)n1` [XI, 6-(4-fluorophenyl)-5-[2-(methylsulfonyl)pyrimidin-4-yl]imidazo[2,1-b][1,3]oxazole]: the IC50 was found to be 4430 nM.

In turn, `OCC(CO)Nc1nccc(-c2c(-c3ccc(F)cc3)nc3occn23)n1` [XIII] displayed a concentration for half-maximal inhibition (IC50) of 13 nM.

Compound `CCOC(=O)Cc1csc2nc(-c3ccc(F)cc3)c(-c3ccnc(NCc4ccco4)n3)n12` [CLXIII] returned a 50% inhibitory concentration (IC50) of 1000 nM.

In turn, `OCC(CO)Nc1nccc(-c2c(-c3ccc(F)c(F)c3)nc3sccn23)n1` [CCVI] came in with a half-maximal inhibitory concentration (IC50) of 609 nM. Compared with the last compound, the IC50 is about 1.6-fold lower.

For `COc1cccc(-c2nc3sccn3c2-c2ccnc(NCC(O)CO)n2)c1` (stereo not shown) [CXCVIII], the IC50 worked out at 649 nM.

As for `CCOC(=O)Cc1csc2nc(-c3ccc(F)cc3)c(-c3ccnc(NCC(C)C)n3)n12` [CLXII], the IC50 is 1000 nM. This IC50 is about 1.5-fold higher than that of the compound before.

As to `COc1ccc(CNc2nccc(-c3c(-c4ccccc4)nc4sccn34)n2)cc1` [CXXXIII], the IC50 turned out to be 81.4 nM.

Regarding `O[C@@H]1CCN(c2nccc(-c3c(-c4ccc(F)cc4)nc4occn34)n2)C1` [CI], half-maximal inhibition (IC50) was put at 1420 nM.

For `NC1CCN(c2nccc(-c3c(-c4ccc(F)cc4)nc4occn34)n2)CC1` [XC], the IC50 came to 866 nM.

`CN(CCO)c1nccc(-c2c(-c3ccc(F)cc3)nc3sccn23)n1` [CLXXVI]: the IC50 came out at 1000 nM.

With `c1ccc(-c2nc3sccn3c2-c2ccnc(NC3CC3)n2)cc1` [CLVII], the IC50 turned out to be 5.29 nM.

`CCOCCCNc1nc(N)cc(-c2c(-c3ccc(F)cc3)nc3sccn23)n1` [CCXXVI] returned an IC50 of 766 nM.

`OCCN1CCN(c2nccc(-c3c(-c4ccc(F)cc4)nc4sccn34)n2)CC1` [CLXXXIII] gave an IC50 of 1000 nM.

`CC[C@H](C)C(Nc1nccc(-c2c(-c3ccc(F)cc3)nc3sccn23)n1)C(=O)OC` (stereo partly shown) [CLXX] registered a half-inhibitory concentration (IC50) of 13.4 nM. This IC50 is about 75-fold lower than that of the compound before.

Take `Nc1cc(-c2c(-c3ccc(F)cc3)nc3sccn23)nc(NC2CC2)n1` [CCXXIII]: the IC50 turned out to be 2080 nM.

`OC[C@@H](Nc1nccc(-c2c(-c3ccc(F)cc3)nc3sccn23)n1)[C@H](O)c1ccccc1` [CXCIV] gave an IC50 of 565 nM.

For `Nc1cc(-c2c(-c3ccc(F)cc3)nc3sccn23)nc(NCCc2ccncc2)n1` [CCXXVIII], the IC50 came out at 960 nM.

`CC(C)C[C@H](CO)Nc1nccc(-c2c(-c3ccc(F)cc3)nc3sccn23)n1` [CLXXXII] showed a half-inhibitory concentration (IC50) of 347 nM.

In turn, `OC1CCN(c2nccc(-c3c(-c4ccc(F)cc4)nc4sccn34)n2)CC1` [CLXXXIV] returned a half-maximal inhibitory concentration (IC50) of 594 nM.

Turning to `Nc1cc(-c2c(-c3ccc(F)cc3)nc3sccn23)nc(NCC2CC2)n1` [CCXXIV], half-maximal inhibition (IC50) required 1570 nM.

`COc1cccc(-c2nc3sccn3c2-c2ccnc(SC)n2)c1` [CLXXV]: half-maximal inhibition (IC50) required 3390 nM.

For `c1ccc(-c2nc3sccn3c2-c2ccnc(NCc3cccs3)n2)cc1` [CXXXVIII], the IC50 worked out at 10.2 nM.

`Cc1cn2c(-c3ccnc(S(C)(=O)=O)n3)c(-c3ccc(F)cc3)nc2s1` [CLXXXVII] displayed an IC50 of 1850 nM.

`COC(=O)C(Cc1ccccc1)Nc1nccc(-c2c(-c3ccc(F)cc3)nc3sccn23)n1` (stereo not shown) [CLXIX] gave an IC50 of 267 nM.

For the compound `CN(CCO)c1nccc(-c2c(-c3ccc(F)cc3)nc3occn23)n1` [XCVI], the concentration for half-maximal inhibition (IC50) amounted to 969 nM.

Consider `CN1CCCC1CCNc1nccc(-c2c(-c3ccc(F)cc3)nc3occn23)n1` (stereo not shown) [LXI], for which 650 nM corresponded to half-maximal inhibition (IC50).

For the compound `CC(C)CNC(=O)Cc1csc2nc(-c3ccc(F)cc3)c(-c3ccnc(NCC(C)C)n3)n12` [CLXVII], the half-inhibitory concentration (IC50) was determined as 1000 nM.

Regarding `COc1cccc(-c2nc3sccn3c2-c2ccnc(NCC(C)O)n2)c1` (stereo not shown) [CXCVII], half-maximal inhibition (IC50) was put at 61.2 nM.

`OCCN(Cc1ccccc1)c1nccc(-c2c(-c3ccc(F)cc3)nc3sccn23)n1` [CXCII] yielded an IC50 of 213 nM. Compared with the last compound, the IC50 is about 3.5-fold higher.

In turn, `Cc1ccc(-c2nc3sccn3c2-c2ccnc(NC(CO)CO)n2)cc1` [CCX] came in with an IC50 of 558 nM.

On to `COc1ccc(-c2nc3sccn3c2-c2ccnc(SC)n2)cc1` [CXC], for which the IC50 is 3040 nM.

`c1ccc(-c2nc3sccn3c2-c2ccnc(NCC3CCCCC3)n2)cc1` [CXXXVII] came in with a half-inhibitory concentration (IC50) of 65.7 nM.

As for `COc1cccc(-c2nc3sccn3c2-c2ccnc(NCCOCCO)n2)c1` [CXCIX], inhibition was half-maximal at 428 nM (IC50).

Regarding `CC(O)CN(CC(C)O)c1nccc(-c2c(-c3ccc(F)cc3)nc3sccn23)n1` (stereo not shown) [CLXXVIII], the IC50 came out at 1000 nM. Compared with the last compound, the IC50 is about 2.3-fold higher.

Compound `COc1ccc(CNc2nccc(-c3c(-c4ccc(F)cc4)nc4sccn34)n2)cc1` [CXLV] came in with a concentration for half-maximal inhibition (IC50) of 65.5 nM.

For the compound `CSc1nccc(-c2c(-c3ccc(F)cc3)nc3sc(C)cn23)n1` [CXCI], the IC50 stood at 741 nM. Compared with the last compound, the IC50 is about 11-fold higher.

In turn, `CC(C)(CO)CNc1nc(N)cc(-c2c(-c3ccc(F)cc3)nc3sccn23)n1` [CCXXIX] displayed an IC50 of 1030 nM. The IC50 values of the last two compounds are within 1.5-fold of each other.

For `c1ccc(-c2nc3sccn3c2-c2ccnc(NCc3ccccn3)n2)cc1` [CLIX], it took 91.1 nM to reach half-maximal inhibition (IC50).

As for `O[C@H]1CCN(c2nccc(-c3c(-c4ccc(F)cc4)nc4occn34)n2)C1` [CII], the concentration for half-maximal inhibition (IC50) stood at 927 nM. Compared with the last compound, the IC50 is about 10-fold higher.

`OCCN(CCO)c1nccc(-c2c(-c3ccc(F)cc3)nc3sccn23)n1` [CLXXVII] registered an IC50 of 793 nM.

For the compound `c1ccc(-c2nc3sccn3c2-c2ccnc(N3CCOCC3)n2)cc1` [CXXXIV], inhibition was half-maximal at 113 nM (IC50).

Compound `Nc1nccc(-c2c(-c3ccc(F)cc3)nc3occn23)n1` [CXXIX] gave an IC50 of 97.4 nM.

`OCC(CO)Nc1nccc(-c2c(-c3cccc(F)c3)nc3sccn23)n1` [CCVIII]: half-maximal inhibition (IC50) was put at 971 nM.

As to `O=C(Cc1csc2nc(-c3ccc(F)cc3)c(-c3ccnc(NCC4CCCCC4)n3)n12)NCC1CCCCC1` [CLXVI], the IC50 turned out to be 1000 nM.

With `CC(C)[C@@H](CO)Nc1nccc(-c2c(-c3ccc4c(c3)OCCO4)nc3sccn23)n1` [CCIII], the half-inhibitory concentration (IC50) came to 1410 nM.

The compound `CCCNc1nc(N)cc(-c2c(-c3ccc(F)cc3)nc3sccn23)n1` [CCXXVII] came in with an IC50 of 1330 nM.

`c1ccc(-c2nc3sccn3c2-c2ccncn2)cc1` [CLXVIII] displayed a 50% inhibitory concentration (IC50) of 1460 nM.

As for `OCCCNc1nccc(-c2c(-c3ccccc3)nc3sccn23)n1` [CLVIII], the IC50 stood at 21.8 nM. This IC50 is about 67-fold lower than that of the compound before.

Consider `CSc1nccc(-c2c(-c3ccccc3)nc3sccn23)n1` [CXXX], for which the IC50 is 228 nM.

Compound `CC(C)[C@@H](Nc1nccc(-c2c(-c3ccc(F)cc3)nc3sccn23)n1)C(=O)OC(C)(C)C` [CLXXIII] showed an IC50 of 81.4 nM.

`CSc1nc(Nc2nccc(-c3c(-c4ccc(F)cc4)nc4occn34)n2)n[nH]1` [LXXVII] gave an IC50 of 529 nM. Against the preceding compound, the IC50 is about 6.5-fold higher.

The values above are taken from US20070270418A1, “Inhibitors of P38 and Methods of Using the Same” (priority 2003, published 2007).
